We go through twelve molecules from patent publication US9238657B2, “Cephalosporin having catechol group” (SHIONOGI & CO., LTD., priority 2008, dated 2016).

In brackets after ≈: the same amount, converted by molar mass. Read-outs that look alike come from different tables or passages of the source.

Common to all, as to assay: Minimum Inhibitory Concentration (MIC), agar plate incubation
Holding throughout (type): cell-based

Test [1] has as its system Pseudomonas aeruginosa SR27060. How it is done:
(§1) Measurement of Minimum Inhibitory Concentration (MIC, microg/ml) was conducted according to the standard method of the Japan Society for Chemotherapy, and the amount of bacteria for inoculation was 1000 cfu/spot, and sensitive disc medium was used as the test medium, and conducted using agar plate incubation.
(§2) In the tables, a unit of the values of inhibitory activity is microg/ml (μg/ml).
(§3) Bacterial strains described in the above tables and enzyme (beta-lactamase) produced thereby are explained in Table 7.

Test [2] concerns Pseudomonas aeruginosa SR24. On the procedure: as §1, §2, §3
Test [3] deals with Acinetobacter baumannii SR24396. On the procedure: as §1, §2, §3
Test [4] relates to Klebsiella pneumoniae ATCC 700603. How it is done: as §1, §2, §3
Test [5] deals with Stenotrophomonas maltophilia SR21970. On the procedure:
as §1, §2, §3

Where [6] appears, read: Pseudomonas aeruginosa SR27060 (IMP-1, MBL producer strain, carbapenem resistant), 1000 cfu/spot, sensitive disc medium, read-out: Minimum Inhibitory Concentration (MIC).
The mark [7] stands for this setting: Pseudomonas aeruginosa SR24 (no enzyme, Ceftazidime sensitive strain), 1000 cfu/spot, sensitive disc medium, read-out: Minimum Inhibitory Concentration (MIC).
The mark [8] stands for this setting: Acinetobacter baumannii SR24396 (no enzyme), 1000 cfu/spot, sensitive disc medium, read-out: Minimum Inhibitory Concentration (MIC).
Where [9] appears, read: ATCC700603, Klebsiella pneumoniae ATCC 700603 (SHV-18, ESBL producer strain), 1000 cfu/spot, sensitive disc medium, read-out: Minimum Inhibitory Concentration (MIC).
[10] abbreviates: Stenotrophomonas maltophilia SR21970 (L-1, MBL producer strain, carbapenem resistant), 1000 cfu/spot, sensitive disc medium, read-out: Minimum Inhibitory Concentration (MIC).
The mark [11] stands for this setting: Pseudomonas aeruginosa, SR27060, read-out: Minimum Inhibitory Concentration (MIC).
Where [12] appears, read: Pseudomonas aeruginosa, SR24, read-out: Minimum Inhibitory Concentration (MIC).
[13] abbreviates: Stenotrophomonas maltophilia, SR21970, read-out: Minimum Inhibitory Concentration (MIC).
Setting [14] is: Acinetobacter baumannii, SR24396, read-out: Minimum Inhibitory Concentration (MIC).
[15] abbreviates: Klebsiella pneumoniae, ATCC700603, read-out: Minimum Inhibitory Concentration (MIC).

Regarding `C[C@H](O/N=C(\C(=O)N[C@@H]1C(=O)N2C(C(=O)[O-])=C(C[N+]3(CCNC(=O)c4cc(Cl)c(O)c(O)c4Cl)CCCCC3)CS[C@H]12)c1nc(N)sc1Cl)C(=O)[O-].[Na+]` [Compound I-23], the MIC in test [1] (setting [6]) is 0.125 µg/mL; in test [2] (setting [7]) it was 0.031 µg/mL; in test [3] (setting [8]), 0.125 µg/mL; in test [4] (setting [9]), 0.031 µg/mL.
As for `C[C@H](O/N=C(\C(=O)N[C@@H]1C(=O)N2C(C(=O)[O-])=C(C[N+]3(CCN(C)C(=O)c4ccc(O)c(O)c4)CCCC3)CS[C@H]12)c1nc(N)sc1Cl)C(=O)O` [Compound I-25], the MIC in test [1] (setting [6]) amounted to 0.25 µg/mL (≈ 0.332 µM); in test [2] (setting [7]), 0.125 µg/mL (≈ 0.166 µM); in test [3] (setting [8]), 0.5 µg/mL (≈ 0.665 µM); in test [4] (setting [9]), 0.5 µg/mL (≈ 0.665 µM).
Regarding `C[C@H](O/N=C(\C(=O)N[C@@H]1C(=O)N2C(C(=O)[O-])=C(C[N+]3(CCCNC(=O)c4ccc(O)c(O)c4)CCCC3)CS[C@H]12)c1nc(N)sc1Cl)C(=O)O` [Compound I-26], the MIC in test [1] (setting [6]) was determined as 0.5 µg/mL (≈ 0.665 µM); in test [2] (setting [7]) it was 0.125 µg/mL (≈ 0.166 µM); in test [3] (setting [8]), 1 µg/mL (≈ 1.33 µM); in test [4] (setting [9]), 0.5 µg/mL (≈ 0.665 µM).
As for `C=C(O/N=C(\C(=O)N[C@@H]1C(=O)N2C(C(=O)[O-])=C(C[N+]3(CCNC(=O)c4ccc(O)c(O)c4Cl)CCCC3)CS[C@H]12)c1csc(N)n1)C(=O)O` [II-1], the MIC in test [1] (setting [6]) was determined as 0.25 µg/mL (≈ 0.34 µM); in test [2] (setting [7]), 0.125 µg/mL (≈ 0.17 µM); in test [5] (setting [10]), 2 µg/mL (≈ 2.72 µM); in test [3] (setting [8]), 0.125 µg/mL (≈ 0.17 µM); in test [4] (setting [9]), 0.5 µg/mL (≈ 0.679 µM).
On to `Nc1nc(/C(=N/OC2(C(=O)[O-])CC2)C(=O)N[C@@H]2C(=O)N3C(C(=O)O)=C(C[N+]4(CCNC(=O)c5ccc(O)c(O)c5Cl)CCCC4)CS[C@H]23)cs1` [II-2], for which the MIC in test [1] (setting [6]) was found to be 0.25 µg/mL (≈ 0.333 µM); in test [2] (setting [7]), 0.125 µg/mL (≈ 0.167 µM); in test [5] (setting [10]), 0.5 µg/mL (≈ 0.666 µM); in test [3] (setting [8]), 0.125 µg/mL (≈ 0.167 µM); in test [4] (setting [9]), 0.5 µg/mL (≈ 0.666 µM).
For the molecule `Nc1nc(/C(=N/O[C@H](C(=O)O)c2ccccc2)C(=O)N[C@@H]2C(=O)N3C(C(=O)[O-])=C(C[N+]4(CCNC(=O)c5ccc(O)c(O)c5Cl)CCCC4)CS[C@H]23)cs1` [II-3], the MIC in test [1] (setting [11]) was found to be 0.5 µg/mL (≈ 0.625 µM); in test [2] (setting [12]) it was 0.125 µg/mL (≈ 0.156 µM); in test [5] (setting [13]) it was 1 µg/mL (≈ 1.25 µM); in test [3] (setting [14]), 0.25 µg/mL (≈ 0.312 µM); in test [4] (setting [15]), 0.125 µg/mL (≈ 0.156 µM).
`NC(=O)C[C@H](O/N=C(\C(=O)N[C@@H]1C(=O)N2C(C(=O)[O-])=C(C[N+]3(CCNC(=O)c4ccc(O)c(O)c4Cl)CCCC3)CS[C@H]12)c1csc(N)n1)C(=O)O` [II-4]: the MIC was 0.25 µg/mL (≈ 0.32 µM) in test [1] (setting [11]); 0.125 µg/mL (≈ 0.16 µM) in test [2] (setting [12]); 1 µg/mL (≈ 1.28 µM) in test [5] (setting [13]); 0.25 µg/mL (≈ 0.32 µM) in test [3] (setting [14]); 0.5 µg/mL (≈ 0.64 µM) in test [4] (setting [15]).
Take `Nc1nc(/C(=N/O/C(=C/C(=O)O)C(=O)O)C(=O)N[C@@H]2C(=O)N3C(C(=O)O)=C(C[N+]4(CCNC(=O)c5ccc(O)c(O)c5Cl)CCCC4)CS[C@H]23)cs1` [II-10]: the MIC in test [1] (setting [6]) came out at 0.25 µg/mL; in test [2] (setting [7]) it was 0.125 µg/mL; in test [5] (setting [10]), 1 µg/mL; in test [3] (setting [8]), 0.25 µg/mL; in test [4] (setting [9]) it was 0.5 µg/mL.
On to `C[C@@H](C[N+]1(CC2=C(C(=O)O)N3C(=O)[C@@H](NC(=O)/C(=N\OC(C)(C)C(=O)[O-])c4csc(N)n4)[C@H]3SC2)CCCC1)NC(=O)c1ccc(O)c(O)c1Cl` [II-12], for which the MIC in test [1] (setting [11]) amounted to 0.25 µg/mL (≈ 0.326 µM); in test [2] (setting [12]), 0.063 µg/mL (≈ 0.0822 µM); in test [5] (setting [13]), 1 µg/mL (≈ 1.31 µM); in test [3] (setting [14]), 0.25 µg/mL (≈ 0.326 µM); in test [4] (setting [15]), 0.25 µg/mL (≈ 0.326 µM).
Take `CC(C)(O/N=C(\C(=O)N[C@@H]1C(=O)N2C(C(=O)O)=C(C[N+]3(CCNC(=O)c4ccc(O)c(O)c4Cl)CC=CC3)CS[C@H]12)c1csc(N)n1)C(=O)[O-]` [II-13]: the MIC came to 0.5 µg/mL (≈ 0.666 µM) in test [1] (setting [6]); 0.063 µg/mL (≈ 0.084 µM) in test [2] (setting [7]); 1 µg/mL (≈ 1.33 µM) in test [5] (setting [10]); 0.25 µg/mL (≈ 0.333 µM) in test [3] (setting [8]); 0.25 µg/mL (≈ 0.333 µM) in test [4] (setting [9]).
As for `C[C@H](O/N=C(\C(=O)N[C@@H]1C(=O)N2C(C(=O)[O-])=C(C[N+]3(CCNC(=O)c4ccc(O)c(O)c4Cl)CCCC3)CS[C@H]12)c1csc(N)n1)C(=O)O` [II-22], the MIC in test [1] (setting [6]) was determined as 0.25 µg/mL (≈ 0.339 µM); in test [2] (setting [7]) it was 0.125 µg/mL (≈ 0.169 µM); in test [5] (setting [10]), 2 µg/mL (≈ 2.71 µM); in test [3] (setting [8]), 0.125 µg/mL (≈ 0.169 µM); in test [4] (setting [9]), 0.5 µg/mL (≈ 0.677 µM).
With `CC(C)[C@H](O/N=C(\C(=O)N[C@@H]1C(=O)N2C(C(=O)[O-])=C(C[N+]3(CCNC(=O)c4ccc(O)c(O)c4Cl)CCCC3)CS[C@H]12)c1csc(N)n1)C(=O)O` [II-23], the MIC was 0.25 µg/mL (≈ 0.326 µM) in test [1] (setting [6]); 0.125 µg/mL (≈ 0.163 µM) in test [2] (setting [7]); 0.5 µg/mL (≈ 0.653 µM) in test [5] (setting [10]); 0.25 µg/mL (≈ 0.326 µM) in test [3] (setting [8]); 0.125 µg/mL (≈ 0.163 µM) in test [4] (setting [9]).
